# Measured values from article PMC8426237, “A first-in-human phase I study of TAS0728, an oral covalent binding inhibitor of HER2, in patients with advanced solid tumors with HER2 or HER3 aberrations” (Investigational New Drugs, 2021).
# Test: Phase I safety assessment: adverse events (CTCAE v5.0) in patients
# [1] = Dose Level 3: 200 mg BID (N = 7)
# [2] = Dose Level 3d: 150 mg BID (N = 6)
# [3] = all treated population, overall
# Experimental: A DLT was defined as a study treatment-related adverse event (TRAE), according to the Common Terminology Criteria for Adverse Events (CTCAE, Version 5.0), with qualifying criteria for certain DLTs (e.g., Grade ≥ 3 diarrhea, was included as a DLT only if lasting >48 h and unresponsive to intensive antidiarrheal medication).
# Patients were closely monitored for these potential toxicities during the current study. Safety assessments included recording of AEs and serious AEs (SAEs) from the time of signing the study informed consent form to 30 days after the last dose of study medication. Safety parameters including laboratory evaluations (hematology, coagulation, chemistry, and urinalysis), vital sign measurements and body weight, electrocardiogram (ECG) recordings, ECOG performance status, echocardiogram or multi-gated acquisition (MUGA), and physical examination were assessed at screening, during the study and at 30 days following the last dose. The use of concomitant medications was permitted and details for such medications were recorded.
smiles,measurement,setting,value
C=CC(=O)N1CCC[C@@H](n2nc(C(=O)Nc3ccc(CC(=O)N(C)C)c(C)c3C)c3c(N)ncnc32)C1 [TAS0728],"Dermatitis acneiform, ≥Grade 3",[1],0 n (%)
same,"Diarrhea, Grade 1",[1],5 (71.4) n (%)
same,"Diarrhea, Grade 2",[1],5 (71.4) n (%)
same,"Diarrhea, Grade 3",[1],3 (42.9) n (%)
same,"Diarrhea, Grade 4",[1],0 n (%)
same,"Diarrhea, Grade 5",[1],0 n (%)
same,"Diarrhea, Total",[1],6 (85.7) n (%)
same,"Diarrhea, ≥Grade 3",[1],3 (42.9) n (%)
same,"Dry skin, Grade 1",[1],2 (28.6) n (%)
same,"Dry skin, Grade 2",[1],0 n (%)
same,"Dry skin, Grade 3",[1],0 n (%)
same,"Dry skin, Grade 4",[1],0 n (%)
same,"Dry skin, Grade 5",[1],0 n (%)
same,"Dry skin, Total",[1],2 (28.6) n (%)
same,"Dry skin, ≥Grade 3",[1],0 n (%)
same,"Fatigue, Grade 1",[1],1 (14.3) n (%)
same,"Fatigue, Grade 2",[1],3 (42.9) n (%)
same,"Fatigue, Grade 3",[1],0 n (%)
same,"Fatigue, Grade 4",[1],0 n (%)
same,"Fatigue, Grade 5",[1],0 n (%)
same,"Fatigue, Total",[1],3 (42.9) n (%)
same,"Fatigue, ≥Grade 3",[1],0 n (%)
same,"Hypokalemia, Grade 1",[1],2 (28.6) n (%)
same,"Hypokalemia, Grade 2",[1],0 n (%)
same,"Hypokalemia, Grade 3",[1],0 n (%)
same,"Hypokalemia, Grade 4",[1],0 n (%)
same,"Hypokalemia, Grade 5",[1],0 n (%)
same,"Hypokalemia, Total",[1],2 (28.6) n (%)
same,"Hypokalemia, ≥Grade 3",[1],0 n (%)
same,"Nausea, Grade 1",[1],1 (14.3) n (%)
same,"Nausea, Grade 2",[1],2 (28.6) n (%)
same,"Nausea, Grade 3",[1],0 n (%)
same,"Nausea, Grade 4",[1],0 n (%)
same,"Nausea, Grade 5",[1],0 n (%)
same,"Nausea, Total",[1],2 (28.6) n (%)
same,"Nausea, ≥Grade 3",[1],0 n (%)
same,"Oedema peripheral, Grade 1",[1],2 (28.6) n (%)
same,"Oedema peripheral, Grade 2",[1],0 n (%)
same,"Oedema peripheral, Grade 3",[1],0 n (%)
same,"Oedema peripheral, Grade 4",[1],0 n (%)
same,"Oedema peripheral, Grade 5",[1],0 n (%)
same,"Oedema peripheral, Total",[1],2 (28.6) n (%)
same,"Oedema peripheral, ≥Grade 3",[1],0 n (%)
same,"Pyrexia, Grade 1",[1],2 (28.6) n (%)
same,"Pyrexia, Grade 2",[1],1 (14.3) n (%)
same,"Pyrexia, Grade 3",[1],0 n (%)
same,"Pyrexia, Grade 4",[1],0 n (%)
same,"Pyrexia, Grade 5",[1],0 n (%)
same,"Pyrexia, Total",[1],3 (42.9) n (%)
same,"Pyrexia, ≥Grade 3",[1],0 n (%)
same,"Vomiting, Grade 1",[1],1 (14.3) n (%)
same,"Vomiting, Grade 2",[1],1 (14.3) n (%)
same,"Vomiting, Grade 3",[1],0 n (%)
same,"Vomiting, Grade 4",[1],0 n (%)
same,"Vomiting, Grade 5",[1],0 n (%)
same,"Vomiting, Total",[1],2 (28.6) n (%)
same,"Vomiting, ≥Grade 3",[1],0 n (%)
same,"Adverse events experienced in ≥10% patients, Grade 1",[2],5 (83.3) n (%)
same,"Adverse events experienced in ≥10% patients, Grade 2",[2],5 (83.3) n (%)
same,"Adverse events experienced in ≥10% patients, Grade 3",[2],3 (50.0) n (%)
same,"Adverse events experienced in ≥10% patients, Grade 4",[2],0 n (%)
same,"Adverse events experienced in ≥10% patients, Grade 5",[2],1 (16.7) n (%)
same,"Adverse events experienced in ≥10% patients, Total",[2],6 (100) n (%)
same,"Adverse events experienced in ≥10% patients, ≥Grade 3",[2],3 (50.0) n (%)
same,"Back pain, Grade 1",[2],1 (16.7) n (%)
same,"Back pain, Grade 2",[2],1 (16.7) n (%)
same,"Back pain, Grade 3",[2],0 n (%)
same,"Back pain, Grade 4",[2],0 n (%)
same,"Back pain, Grade 5",[2],0 n (%)
same,"Back pain, Total",[2],2 (33.3) n (%)
same,"Back pain, ≥Grade 3",[2],0 n (%)
same,"Diarrhea, Grade 1",[2],2 (33.3) n (%)
same,"Diarrhea, Grade 2",[2],1 (16.7) n (%)
same,"Diarrhea, Grade 3",[2],2 (33.3) n (%)
same,"Diarrhea, Grade 4",[2],0 n (%)
same,"Diarrhea, Grade 5",[2],0 n (%)
same,"Diarrhea, Total",[2],4 (66.7) n (%)
same,"Diarrhea, ≥Grade 3",[2],2 (33.3) n (%)
same,"Pyrexia, Grade 1",[2],0 n (%)
same,"Pyrexia, Grade 2",[2],2 (33.3) n (%)
same,"Pyrexia, Grade 3",[2],0 n (%)
same,"Pyrexia, Grade 4",[2],0 n (%)
same,"Pyrexia, Grade 5",[2],0 n (%)
same,"Pyrexia, Total",[2],2 (33.3) n (%)
same,"Pyrexia, ≥Grade 3",[2],0 n (%)
same,"Vomiting, Grade 1",[2],2 (33.3) n (%)
same,"Vomiting, Grade 2",[2],0 n (%)
same,"Vomiting, Grade 3",[2],0 n (%)
same,"Vomiting, Grade 4",[2],0 n (%)
same,"Vomiting, Grade 5",[2],0 n (%)
same,"Vomiting, Total",[2],2 (33.3) n (%)
same,"Vomiting, ≥Grade 3",[2],0 n (%)
same,Patients with AEs,Overall (N = 19),"19 (100) n, (%)"
same,Patients with AEs that had an outcome of death,Overall (N = 19),"1 (5.3) n, (%)"
same,Patients with AEs that led to study treatment discontinuation,Overall (N = 19),"3 (15.8) n, (%)"
same,Patients with Grade ≥ 3 AEs,Overall (N = 19),"9 (47.4) n, (%)"
same,Patients with SAEs,Overall (N = 19),"8 (42.1) n, (%)"
same,Patients with treatment-related AEs,Overall (N = 19),"17 (89.5) n, (%)"
same,Patients with treatment-related and Grade ≥ 3 AEs,Overall (N = 19),"6 (31.6) n, (%)"
same,Patients who died during the study,all dose levels,4
same,Patients who experienced an AE during the study,"all treated population, all 19 patients",100.0%
same,TRAE incidence: diarrhea,[3],78.9%
same,TRAE incidence: fatigue,[3],21.1%
same,TRAE incidence: nausea,[3],21.1%
same,TRAE incidence: vomiting,[3],21.1%
same,TRAEs considered ≥Grade 3 in severity,[3],31.6%
same,≥Grade 3 TRAE incidence: diarrhea,[3],26.3%
same,Patients with an SAE considered related to study drug,"all treated population, three of 19, diarrhea (200- and 150-mg BID), cardiac arrest (150 mg BID)",15.8%
same,Changes from baseline in clinical laboratory results and standard 12-lead ECG parameters,during the study,No clinically meaningful changes from baseline
same,Patients who experienced an AE that led to study drug discontinuation,"in total, all dose levels",4
same,"Deaths >30 days after the last dose of study treatment, all due to clinical progression",of 4 deaths,3
same,Patients who experienced ≥1 SAE,"overall population, 8 of 19",42.1%
same,Patients with an SAE Grade 3 or higher in severity,"overall population, five patients",26.3%
same,SAE incidence: acute kidney injury,"overall, 1 patient",5.3%
same,SAE incidence: back pain,"overall, 1 patient",5.3%
same,SAE incidence: cardiac arrest,"overall, 1 patient",5.3%
same,SAE incidence: cellulitis,"overall, 1 patient",5.3%
same,SAE incidence: clostridium colitis,"overall, 1 patient",5.3%
same,SAE incidence: dysphagia,"overall, 1 patient",5.3%
same,≥Grade 3 TRAE incidence: acute kidney injury,"overall, 1 patient",5.3%
same,≥Grade 3 TRAE incidence: cardiac arrest,"overall, 1 patient",5.3%
same,≥Grade 3 TRAE incidence: proteinuria,"overall, 1 patient",5.3%
same,SAE incidence: diarrhea,"overall, 2 patients",10.5%
same,SAE incidence: pyrexia,"overall, 4 patients (2 each at 200 mg and 150 mg BID)",21.1%
same,Patients with diarrhea at a severity ≥Grade 3,reduced dose of 150 mg BID,2
same,Patients with diarrhea,"reduced dose of 150 mg BID, 4 of 6",66.7%
